What was measured:
[1] = test system: 668 cancer cells lines of various types; settings: CTRP data, cited from earlier work
[2] = test system: C4-2B, LAPC4-CR and LNCaP-AI cells; assay: RT-qPCR of selected genes in C4-2B, LAPC4-CR and LNCaP-AI; type: cell-based, human; settings: 5 μM, 72 hrs
Source text: The expression of these genes was examined in three other EZH2i-sensitive CRPC cell lines: C4-2B, LAPC4-CR and LNCaP-AI. FIG. 2D is a heat map of quantitative real-time RT-qPCR results showing changes in mRNA levels of selected gene in three prostate cancer cell lines (C4-2B, LAPC4-CR, and LNCaP-AI). […] EZH2-activated genes and EZH2-repressed genes are grouped together. […] Numbers, triplicates of samples from control or treatment group.
RNA isolation and RT-qPCR. RNA was extracted and purified using the TRIzol Reagent combined with RNeasy Mini Kit (Qiagen) according to manufacturer's protocols. 2 μg of total RNAs were then used for cDNA synthesis using High Capacity cDNA Reverse Transcription Kit (Applied Biosystems). Real-time quantitative RT-PCR was performed, and gene expression was calculated as described previously, using the formula 2-ΔΔCt relative to the level of GAPDH as the internal control.

DU145 cells [3] = assay: Gene expression by RNA-Seq in DU145 cells; type: cell-based, human; settings: 5 μM, 72 hrs
Method: (§1) Blue bars represent the percentage of genes in each specific functional category. The red line represents values of the false discovery rate (FDR) for the particular GO term. […] Two analyses were carried out to rule out the possible off-targeted effect of EZH2i on gene regulation. First, transcriptional profiles were compared in abl being treated with either EZH2i or in which EZH2 had been silenced using RNA interference (RNAi). Pharmacologic and genetic inhibition of EZH2 shared highly similar gene expression patterns.
(§2) Analysis of EZH2 Inhibitor Mediated Gene Expression by RNA-Seq. […] RNA-seq library was prepared using Illumina True-seq RNA sample preparation kit and sequenced to 50 bp using Illumina Hi-seq platform. RNA-seq data was mapped to human genome (hg19) using TopHat version 2.0.6. […] Differentially expressed genes were first filtered using LFC>0.5 or <−0.5, and then top 200 genes were selected through ranking by their p-values. The authentic target genes of EZH2 in abl cells were defined as those showing similar expression changes upon either EZH2 silencing or inhibitor treatment.

DU145 cells [4] = assay: Growth curve of DU145 cells; type: cell-based, human; settings: FIG. 9A
Method: Genetic inhibition of EZH2 suppressed growth of CRPC cells better than that of androgen-dependent prostate cancer cells. As EZH2 is a druggable enzyme with available small-molecule inhibitors, the efficacy of EZH2-targeting drugs was assessed in prostate cancer cells. […] Cells were grouped based on the basic characteristics. ADPC is androgen-dependent prostate cancer, and CRPC is castration-resistant prostate cancer. Concentrations as low as 500 nM of the EZH2 inhibitors (EZH2i) greatly retarded the growth of castration-resistant abl cells. […] Relatively higher doses of EZH2i were required to suppress the androgen-dependent LNCaP cells. […] This was consistent with a previous report that neither PC3 nor DU145 requires EZH2 for continued growth.

[5] = test system: H3K27 methylation in prostate cell lines; assay: Western blot of H3K27 methylation levels in prostate cell lines; type: cell-based, human; settings: all tested prostate cell lines; 1 or 5 μM
Source text: In view of the canonical function of EZH2 in catalyzing H3K27me3, the mechanisms of how repressive chromatin mark contribute to the growth and gene inhibitory effects of EZH2i were investigated. […] Discrepancies between EZH2i-induced H3K27me3 reduction and cell insensitivity to EZH2i were also reported in lymphoma cells.

abl cells [6] = assay: Gene expression by RNA-Seq in abl cells; type: cell-based, human; settings: 5 μM, 72 hrs
Method: as §1, §2

LNCaP cells = assay: Alkaline comet assay after ionizing radiation in LNCaP cells; type: cell-based, human; settings: 5 μM pretreatment 7 days, recovery 4 hrs
Method: (§3) EZH2i can be administered to sensitize CRPC cells to DNA damage repair (DDR) agents. To validate this, abl, LNCaP and DU145 cells were exposed to increasing doses of ionizing radiation (IR). […] FIG. 6A is a graphical representation of the alkaline comet assays in abl cells. Prostate cancer cells were pretreated with vehicle (DMSO) or 5 μM GSK126 (GSK) for 7 days, and then exposed to increasing dosages of ionizing radiation (IR) followed by recovery for 4 hrs. FIG. 6B is a set of photographic images of each IR dosage corresponding to the dosages in FIG. 6A. FIG. 6C is a graphical representation of the alkaline comet assays in LNCaP cells. […]
(§4) FIG. 15A is a graphical representation of the alkaline comet assay results in abl cells after pretreatment with vehicle (DMSO) or 5 μM GSK126 (GSK) for 7 days and then being exposed to 5 gray (Gy) ionizing radiation (IR) followed by recovery at indicated time points (Quantification of the results using “Olive Tail Moment” parameter). […] FIG. 15C is a graphical representation of the alkaline comet assay results in LNCaP cells after pretreatment with vehicle (DMSO) or 5 μM GSK126 (GSK) for 7 days and then being exposed to 5 gray (Gy) ionizing radiation (IR) followed by recovery at indicated time points (Quantification of the results using “Olive Tail Moment” parameter). […]

CWR22Rv1 xenografts = assay: Test of EZH2 inhibitors in CWR22Rv1 xenograft mouse model; type: in vivo, castrated nude mice
Method: FIG. 1F is a growth curve of xenograft tumors in castrated nude mice injected with CWR22Rv1 cells receiving vehicle (Veh) or GSK126, at the indicated doses.
Test of EZH2 Inhibitors in Xenograft Mouse Model. Male nude mice (Taconic) were castrated after 3 days of accommodation. CWR22Rv1 xenografts were established in the flanks of mice by injecting ˜2 million cells in 50% Matrigel (BD Biosciences). […] Tumors were measured 3 times every week and harvested after 3 weeks. Frozen samples were subjected to RT-qPCR and immunoblotting to study the expression of selected genes. All animal protocols were approved by the Beth Israel Deaconess Institutional Animal Care and Use Committee, and the experiments were performed in accordance with institutional and national guidelines.

DU145 cells [7] = assay: Alkaline comet assay after ionizing radiation in DU145 cells; type: cell-based, human; settings: 5 μM pretreatment 7 days, recovery 4 hrs
Method: as §3, §4

abl cells [8] = assay: Alkaline comet assay after ionizing radiation in abl cells; type: cell-based, human; settings: 5 μM pretreatment 7 days
Method: as §3, §4

Compound	potency by EZH2 mutation status ([1]; GOF vs LOF p=0.2705, GOF vs None p=1.000)	sensitivity of cell lines by expression of DNA repair genes ([1]; top 25% highest vs bottom 25% lowest expression)	expression of EZH2-repressed genes [2]	gene expression pattern in EZH2i-insensitive DU145 cells (DU145 cells [3])	inhibitory effect on growth of AR-null DU145 (DU145 cells [4])	total H3K27 di- and tri-methylation levels [5]	gene expression pattern in abl cells (abl cells [6])	difference in sensitivity to ionizing radiation (comet assay) (LNCaP cells)	xenograft tumor growth (CWR22Rv1 xenografts; CWR22Rv1 subcutaneous xenografts, castrated mice, daily injection, 21 days of treatment)	mRNA and protein levels of EZH2-activated genes in xenograft tumor tissues (CWR22Rv1 xenografts; CWR22Rv1 xenografts)	difference in sensitivity to ionizing radiation (comet assay) (DU145 cells [7])	DNA damage repair after 5 Gy IR (Olive Tail Moment over recovery time) (abl cells [8])	sensitivity to increasing doses of ionizing radiation (comet assay) (abl cells [8]; recovery 4 hrs)
C[C@H]1CN([C@@H](C)CO)S(=O)(=O)c2ccc(C#CCC3CCCC3)cc2O[C@@H]1CN(C)Cc1ccc(C(=O)O)cc1 [BRD]	does not show higher potency	much more susceptible											
CCN(c1cc(-c2ccc(CN3CCOCC3)cc2)cc(C(=O)NCc2c(C)cc(C)[nH]c2=O)c1C)C1CCOCC1 [EPZ-6438]			upregulated EZH2-repressed genes to some extent	largely de-repressed genes	minimal	reduced total H3K27 di- and tri-methylation levels in a dose-dependent manner	a large number of genes were significantly downregulated						
CC[C@H](C)n1cc(C)c2c(C(=O)NCc3c(C)cc(C)[nH]c3=O)cc(-c3ccc(N4CCNCC4)nc3)cc21 [GSK126]			upregulated EZH2-repressed genes to some extent	largely de-repressed genes	minimal	reduced total H3K27 di- and tri-methylation levels in a dose-dependent manner	a large number of genes were significantly downregulated	very minor	significantly retarded tumor growth	consistent decrease	non-existent	drastically delayed DNA damage repair	became much more sensitive to IR

— patent publication US20220401452A1, “USE OF INHIBITORS OF ENHANCER OF ZESTE HOMOLOG 2” (The Board Of Regents of The University of Texas System, priority 2019, published 2022)
